According to PMC6452685, “Lysyl-tRNA synthetase as a drug target in malaria and cryptosporidiosis” (Proceedings of the National Academy of Sciences of the …, 2019):
Values after ≈ are worked out from the molar mass of the structure shown.

Experiments:
CYP2C19 = molecular target: T1, CYP2C19 (Homo sapiens, UniProt P33261); experiment: Fluorescence-based CYP inhibition, CYP2C19; assay type: in vitro ADME
T1 construct: purchased Cypex, Dundee, UK; host or cells: bacterial membranes (bactosomes)
Experimental: 4.7 F lu or e s ce nce-based CYP I nhibition usin g recombinantly expressed CYP b actosomes Fl uorogeni c C YP i nhi bi t i on s t udi es w ere c ondu ct ed at 37 °C i n 96-well, flat-bot t om, cl ear p ol y s t y rene pl at es. I ncubat i on mi xt ures cont ai ni ng Eas y C YP bact os omes (1000 pmol /ml , 10 mg /ml C y pex TM, Dundee, UK), fl uorogeni c substrate (Cypex TM) and 50 mM potas s i um phosphat e buffer (p H 7. 4) w er e prepared at t he fol l ow i ng fi nal concent rat i ons : C YP1A2, 5 pmol /ml + 35 µ M et hox y res orufi n (ER) ; CYP2C9, 10 pm ol/ml + 30 µM 7-methoxy-4-(tri fl uo romethy l )-coumari n (MFC ); C YP 2C 19, 5 pm ol /ml + 25 µM 3-cy ano-7-eth oxycoumarin (CEC); C YP 2D 6, 10 pmol /ml + 6 µM 7-meth oxy-4-(ami nomethy l )- coumari n (MAMC ); C YP 3A4, 10 pmol /ml + 1 µM diethoxyfluorescein (DEF) and 10 pmol /ml + 15 µM 7-benz y l ox y qui nol i ne (BQ ). […] 0125 ( 1A2 and 2C 9 onl y ) o r 0. 025 mg /ml (al l ot her i s oforms ). […] Positive control inhibitor, miconazole, was prepared as a 500 µM s olution in DMSO and similarly diluted.
For eac h i sofo rm, 2 20 µl of i ncubati on mi x was added to each wel l of a 96-well, flat-bot t om, cl ear pol y s t y rene pl at e. Al i quot s (5 µl) of each compound 5 conce ntrati on was then mi x ed wi th 220 µl of the incubation mix and pre-incubated at 37 °C for 5 min (final test compound concentration range: […]

C. parvum Iowa strain = experiment: In vitro inhibition of Cryptosporidium, C. parvum Iowa in HCT-8 cells (imaging); assay type: cell-based; conditions: HCT-8, read-out: C. parvum Iowa strain EC50
FaSSIF solubility = assay type: physicochemical; conditions: 37 °C, thermodynamic from solid; FaSSIF pH 6.5
Experimental: 4.1 Aque ous s olubilit y
Compounds were subject to serial dilution from 10 mM to 0.47 mM in DMSO. An al i quot was then mi xed wi th Mi l li Q water to obtai n a n aq ueous di l uti on pl ate wi th a fi na l concentrati on rang e of 250 - 13 µM, with a final DMSO concentration of 2. 5 % (v /v ). Triplicate al i quots were transferred to a fl at bottomed pol ystyrene pl ate whi ch was i mmedi ately read o n the NEPHELOstar (BMG Lab Techn ol ogi es). […]
Drug dissolution in biorelevant media which simulates the liquid environment within the upper […]
into the blood stream and is more a more accurate determination of oral d os e s ol ubi li t y t han si mple aqueous sol ubi l i ty performed at neutral pH and wi thout any associ ated bil e aci ds and fats. This method i s based on that of Fagerberg et al. (16) where the FaSSIF has pH 6.5 a nd c ontains 3 mM sodium taurocholate and 0.7 5 mM lectithin. FaSSIF blank only has pH 6.5 and is devoid of salts and […]
[…] The sampl e i s then centri fuged at 10,00 0 rpm for 3 mi n befo re th e supernatant i s subject to HPLC analysis at 254 nm UV detecti on wavel ength. Typi call y, 10 µ l supernatant injections are suffi ci ent to achi eve peak areas whi ch fal l wi thi n the 6 p oi nt standar d curv e of anal y te concentrati ons i njected onto the col umn, al thoug h thi s may be i ncreas ed up to 40 µl for more insoluble compounds where necessary. […]

T1 sequence (P33261 whole entry): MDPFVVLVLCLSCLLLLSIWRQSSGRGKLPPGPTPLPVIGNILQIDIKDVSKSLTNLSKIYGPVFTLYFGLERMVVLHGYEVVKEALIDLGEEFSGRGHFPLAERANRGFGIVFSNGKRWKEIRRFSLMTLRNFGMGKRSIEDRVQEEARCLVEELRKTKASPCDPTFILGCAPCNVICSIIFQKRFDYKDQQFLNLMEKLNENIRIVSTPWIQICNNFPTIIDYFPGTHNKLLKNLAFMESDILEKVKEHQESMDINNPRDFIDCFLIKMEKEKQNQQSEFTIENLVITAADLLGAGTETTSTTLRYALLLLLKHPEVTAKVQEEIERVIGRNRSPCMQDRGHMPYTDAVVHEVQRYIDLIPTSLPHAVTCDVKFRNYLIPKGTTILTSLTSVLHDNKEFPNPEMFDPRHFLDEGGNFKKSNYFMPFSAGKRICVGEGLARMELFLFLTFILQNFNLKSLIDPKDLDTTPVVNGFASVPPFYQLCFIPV

O=C(NCC1(O)CCC(F)(F)CC1)c1cc(=O)c2cc(F)ccc2o1 [Compound 5]
IC50 (CYP2C19): > 10000 nM
EC50 (C. parvum Iowa strain): 1300 nM
solubility at 5 h (FaSSIF solubility): 255 µM (≈ 90.6 µg/mL)
